Source: a melting point compilation (Tetko et al.; mined from patent text by program, amines drawn as free bases though some values may be those of a salt)

melting point [°C] | Compound
82 to 84 | Cc1nc(Cl)c2sccc2n1
128 to 131 | CCOC(=O)Cn1c2cccccc-2c(CC)c1=O
200 to 203 | O=C(NC1=NCCCC1)Nc1ccc(Cl)cc1
55 to 61 | COc1ccc(C(C#N)CNC(N)=O)cc1OC1CCCC1 (stereo unspecified)
124 to 126 | O=C(N[C@@H](CO)c1nc2cc(Br)ccc2[nH]1)c1ccc(C(=O)N2CC=CC2)c(Cl)c1
81 to 82 | Cc1coc(N(CCCC(=O)O)C(=O)C(C)C)n1
164 to 166 | O=c1[nH]ncc2ccc(OCC3CO3)cc12 (stereo unspecified)
105 to 109 | CCCCCCCCNC(=O)c1c(N)cc(Cl)cc1Cl
178 to 181 | N#CNC(=N)NCCCN1CCC(c2noc3cc(F)ccc23)CC1
164 to 167 | CCOc1ccc(C2(N)NC(Nc3ccc4c(c3)OCCO4)=NC=C2F)cc1 (stereo unspecified)
78 to 80 | COc1cc(Sc2ccccc2CO)ccc1Cl
55 to 60 | CC(C)(CS(=O)(=O)c1ccc(Cl)cc1)C(=O)C(Oc1ccc(Cl)cc1)n1cncn1 (stereo unspecified)
177 to 178 | Cc1nc(-c2ccc(Cl)cc2)oc1COC(C)(C)C(N)=O
328 | COc1ccc(Cl)c2c1[nH]c1c(C(=O)O)cccc12
254 to 256 | CC(=O)Nc1c(C(=O)c2ccccc2)[nH]c2ccc(N)cc12
151 to 154 | COCC(=O)c1cc(-c2ccc(S(C)(=O)=O)cc2)n(-c2ccc(F)cc2)n1
118 to 120 | COC(=O)C(=O)c1ccc(OCCOc2ccc3ccccc3c2)cc1C
54 | CCCc1nnc(-c2ccc(OC)cc2)s1
55 to 57 | COC(=O)c1nc(C)ccc1OC
234 to 238 | Nc1ncc(-c2cccc(F)c2)nc1C(=O)Nc1cccnc1
143 to 150 | Cc1cc(O)c(I)cc1C(=O)O
162 to 164 | CN(C)Cc1cc(C(=O)c2ccc3ccccc3c2)cc(C(C)(C)C)c1O
181 to 182 | CC(=O)N1CCN(c2ccc(-n3ccnc3)cc2)CC1
> 270 | O=C(NCc1cc(Br)cc2[nH]c(=O)c(=O)[nH]c12)c1ccccn1

melting point [°C] | Compound
276 | O=C(O)c1cc2sc3sccc3c2s1
186 to 188 | CC(=O)n1cc(O)c2cc(Cl)ccc21
132 | Cc1cc(C)n(C(=N)NC(=S)Nc2cccnc2)n1
122 to 124 | CCc1nc2c(NC(=O)C(C)C)nc3ccccc3c2n1CCCCNS(C)(=O)=O
182 | Cc1c(C(=O)Nc2ccc(N3CCC(O)CC3)c(C#N)c2)cnn1-c1ccccc1
87.5 to 88.5 | Cn1nnnc1SCCCSc1ncccc1O
92.5 to 94.5 | O=C(Cl)c1ccc(OCc2ccccc2)c(OCc2ccccc2)c1
81 to 82 | C[Si](C)(C)C#Cc1ccc(C#N)cc1[N+](=O)[O-]
85 to 86 | Cc1cc(Oc2c(F)cc(C(F)(F)F)cc2Cl)nn1C(=O)NCCBr
124 to 126 | CC(O)(CC(=O)O)c1ccc(-c2ccc(Cl)c(Cl)c2)cc1 (stereo unspecified)
147 to 148 | Cc1c(NC(=O)c2cccc(Oc3ccccc3)c2)ccc2cc(CN3CCCC3)cnc12
173 to 174 | CC(=O)Nc1cc(CCl)c(I)cn1
209 to 210 | CCOC(=O)c1cnn2c(-c3ccncc3)ccnc12
192 | COc1cc(Cl)c(N)cc1C(=O)N[C@H]1CCNC[C@H]1OC (relative stereo)
166 to 167 | COc1cc2c(cc1OC(C)=O)CCC1C2CCC2(C)C1CCC21OCCO1 (stereo unspecified)
134 to 136 | COc1cccc(C=CC(=O)c2c(OCC=C(C)C)ccc3c(=O)c4ccccc4oc23)c1
90 to 95 | O=[N+]([O-])c1cccc(/C=C/c2nc(C3CC3)cs2)c1
68 to 70 | CNC(=O)CCc1ccc2cc(O[C@@H](C)[C@H](O)CCc3cccnc3)ccc2c1
50 | CCOC(=O)c1ccc(C2=CCCCC2C(C)(C)C)cc1 (stereo unspecified)
89 to 92 | CC(=O)Nc1cc(C)c(C)nc1C
99 to 101 | CCN(C(C)=O)c1ccc(OC23CCC(CC2)CC3)cc1
246 to 249 | O=C(O)c1ccc2sc(Cc3cccnc3)cc2c1
260 to 262 | O=C1CCC(N2Cc3cc(CNC(=O)c4ccc(Cl)c(Cl)c4)ccc3C2=O)C(=O)N1 (stereo unspecified)

More lines, now with the values behind:

Compound | melting point [°C]
Cc1cccn2c3c(nc12)-c1ccccc1C(=O)C3=O | > 260
O=c1[nH]c(=O)n(C2OC(CBr)C(O)C2F)cc1C=CBr (stereo unspecified) | 223
CC1Sc2nc3c(cnn3C)c(=O)n2C1C (stereo unspecified) | 168 to 170
CCCC(Cc1ccc(OCCN2CCCCCC2)cc1)(C(=O)NO)S(=O)(=O)c1ccc(OC)cc1 (stereo unspecified) | 85
CCOC(=O)C(C)=Cc1cn(Cc2ccc(C(=O)OC(C)(C)C)cc2OC)c2cc(C(=O)NCC3CCCC3)ccc12 | 118 to 120
O=c1oc(C(F)(F)F)ccc1-c1ccc(Cl)cc1F | 107 to 108
CC(C)N1C(=O)NC2(CCN(C(=O)OC(C)(C)C)CC2)C1=O | 206 to 208
CC(C)(C)C1=NCC(O)CN1 (stereo unspecified) | 210
C=C(Cn1ccnc1)c1ccccc1OCc1ccc(-c2ccccc2)cc1 | 90 to 92
CCOC(=O)CC1(N2C(=O)c3ccccc3C2=O)C(=O)N(c2ccccc2)c2ccccc21 (stereo unspecified) | 148 to 149
COc1ccc(/C=N/N2C=COC=C2)cc1OC1CCCC1 | 108 to 109
O=C(CCC(=O)N1CCC[C@H]1C(=O)O)[C@H](Cc1ccccc1)OCc1ccccc1 | 114 to 115
COc1cccc(OC)c1S(=O)(=O)OCC(=NNc1ccccc1)c1ccccc1 | 168
O=C(NC(=O)c1c(F)cccc1F)Nc1ccc(SC(F)(F)C(F)Cl)cc1F (stereo unspecified) | 172 to 173
CCc1cn([C@@H]2CO[C@H](CO)O2)c(=O)[nH]c1=O | 132 to 133
Cc1oc(-c2cc3ccccc3s2)nc1COc1ccc(CCCC2OC(=O)NC2=O)cc1 (stereo unspecified) | 154 to 155
O=C1NCCN(Cc2cc(=O)c(OCc3ccccc3)cn2Cc2ccccc2)C1=O | 260 to 265
Nc1cc(-c2c(-c3ccc(F)cc3)ncn2CCCN2CCOCC2)ccn1 | 186 to 187
Cc1ccc(NC(=O)c2ccsc2)cc1-c1nc(N(C)C)nc2c1CNC(=O)N2c1c(F)cccc1F | 214 to 215
CCCCc1ccc(-c2ccc(CCC3OCC(CCC)CO3)cc2)c(F)c1 (stereo unspecified) | 36
COc1ccc(-c2cn3ccc(C)cc3n2)cc1OC | 163
O=S(=O)(CCc1ccccc1)CCc1ccccc1 | 98 to 99
COc1ccc(-n2c(-c3sc(NC(=O)c4ccccc4)nc3-c3ccccc3)nc3ccccc3c2=O)cc1 | > 275
COc1ccc(-c2ccc(C(=O)Nc3ccc4cc(CN5C(C)CCCC5C)ccc4c3)cc2)cc1 (stereo unspecified) | 199 to 200
CC(C)c1cc2c(cc1C(SCC(=O)O)c1ccccc1)OCO2 (stereo unspecified) | 114
O=[N+]([O-])c1ccc(Oc2cccc(Oc3ccc([N+](=O)[O-])c(O)c3)c2)cc1O | 180 to 182
CCN(CC)C(=O)Oc1nc(C)c2cc(OC)c(OC)cc2c1NC(N)=O | 215 to 216

Compound | melting point [°C]
COC(=O)C1=C(CO)NC(C)=C(C(=O)OCC(C)(C)C)C1c1ccccc1C#N (stereo unspecified) | 178 to 180
OC1CSC(Oc2cc(-c3cccnc3F)ccc2Cl)C(O)C1O (stereo unspecified) | 165
CS(=O)(=O)c1ccc(-c2cnn(-c3ccc(F)c(F)c3)c(=O)c2Cc2ccc(F)cc2)cc1 | 157 to 159
FC(F)(F)COc1ccc(CCNc2ncnc3scnc23)cn1 | 109 to 112
COc1ccc(CN2C(=O)C(O)(c3cc(CN(C)C)ccc3OC)c3cc(Cl)ccc32)c(OC)c1 (stereo unspecified) | 189
CCS(=O)c1c(C#N)nn(-c2c(Cl)cc(C(F)(F)F)cc2Cl)c1N (stereo unspecified) | 173 to 174
NC(=O)c1cc2c(OCCCN3CCN(c4cc(N5CCCC5)nc(N5CCCC5)n4)CC3)cccc2[nH]1 | 151 to 152
Cc1cccc(NC(=O)NC2N=C(c3ccccc3F)c3ccccc3N(Cc3cc(C(C)(C)C)ccn3)C2=O)c1 (racemic) | 142 to 144
CN1CCC(C2Oc3cc(Cl)ccc3Cn3c(Cl)ccc32)CC1 (stereo unspecified) | 132 to 140
CC1(C)CN(c2ccncc2)c2ccc(S(=O)(=O)c3ccccc3)cc2O1 | 113 to 120
O=C1Nc2ccc(F)c(F)c2C(=O)N2CCC[C@@H]12 | > 250
CCCc1c(C(=O)C(C)C)c2ccc(C(=O)O)cc2n1Cc1ccccc1[N+](=O)[O-] | 214 to 215
Nc1nc2ccccc2c2c1nc1n2OCC1 | > 300
CC(C)(C)c1nc2cc(N3CCCCC3)c(NC(N)=S)cc2s1 | 228 to 232
O=[N+]([O-])c1cccc(-c2ccncc2)c1 | 109 to 110
O=C(NCc1ccccc1[N+](=O)[O-])C1Cc2ccccc2N1S(=O)(=O)c1ccc(-c2ccc(F)cc2F)cc1 (stereo unspecified) | 99 to 102
COc1ccc2[nH]c3cc(-c4cccc([N+](=O)[O-])c4)c4c(c3c2c1)C(=O)NC4=O | > 340
Oc1cccc(CCN2CCCC2)c1 | 99 to 102
CCOc1cc(N)ccc1-c1ccc(-c2ccc(N)cc2OCC)o1 | 192 to 193
Nc1cc(N2CCCNCC2)nc(N)n1 | 62 to 72
Nc1cc2c(cc1Oc1ccccc1)C(=O)OC2 | 205 to 206
COC(=O)CC(O)CC(O)C=Cc1c2c(nn1-c1ccc(F)cc1)C(Cc1ccc(-c3ccccc3)cc1)CCC2 (racemic) | 118 to 119
O=c1c(-c2cccc(Cl)c2)c[nH]n1-c1cccc(C(F)(F)F)c1 | 190 to 192
COC(=O)[C@H](Cc1c[nH]cn1)NC(=O)[C@H](Cc1ccccc1)NC(=O)[C@H](Cc1ccccc1)NC(=O)C(C)(C)C | 128 to 131
CCOC(=O)C1=NN=C(c2ccc(OC)c(OC)c2)c2cc(OC)c(OC)cc2C1CC (stereo unspecified) | 178 to 180
Nc1ncnc2c1c(-c1ccc(Oc3ccccc3)cc1)cn2CC(=O)NCCN1CCNCC1 | 138 to 140
CCCCCCCCCCCCOC(=O)NCCC(=O)O | 88 to 90
